Assay [1] can be described thus: Interference with l-lactate measurement in saline (L-Lactate Accuvin test strips). To be noted: d-lactic acid (0.05 mg) + l-lactic acid (0.06 mg). As to the method:
Forty mg of d-lactic acid (Sigma-Aldrich, St. Louis, Mo.; catalog no. L0625) was polymerized in a microwave oven according to the method of Pandey and Aswath (J Biomater Sci Polym Ed. 2009; 20(1):33-48). Briefly, d-lactic acid was transferred to 2 ml Reacti-Vials (Pierce Chemical Co., Rockford, Ill.) and the polymerization was carried out vented in a GE Spacemaker Model JVM 1650WH05 (Serial #900524B; manufactured April 2006) with an RF output frequency of 2450 MHz in the absence of any added solvent or catalyst. Polymerization was carried out starting at Power 1 setting on the microwave and weighing at 30 second intervals. […] Weight loss was from water during polymer esterification and dehydration. During the course of the microwave process, d-lactic acid crystals undergo a state change from a solid to a liquid and then to a gel at the end of the process. Similar procedure was used to produce PLLA with l-lactic acid.
[…] Measurement of l-lactate with L-Lactate Accuvin Test strips (Accuvin LLC, Napa, Ca), using stereospecific lactate dehydrogenase and a tetrazolium color indicator, measured less l-lactate (interference) in the experimental sample as evidenced by colorimetric determination. Experimental sample vs, control measured 10 mg/L vs, 50 mg/L of l-lactate. Other relevant tests using similar methodology and D-Lactate Accuvin Test strips are as follows:

Assay [2] is described as follows: Interference with d-lactate measurement in saline (D-Lactate Accuvin test strips). To be noted: similar methodology.

The structures appear in SMILES notation.

Consider `C[C@@H](O)C(=O)O` [d-lactic acid], for which the l-lactate test strip in assay [1] turned out to be 50 mg/L.
As for `C[C@H](O)C(=O)O` [l-lactic acid], in assay [2], the “Interference with lactate measurement (in words)” value is “No interference”.
